Data set [1] has as its system A549. In words: Cytotoxicity against human A549 cells after 72 hrs by MTT assay. Type of data set: functional, cell-based. The following applies: A549, 72 h. (Formazan colour is commonly taken as a measure of viable cells.)
The subject of data set [2] is PC-3. The experiment in a line: Cytotoxicity against human PC3 cells after 72 hrs by MTT assay. It is filed as functional, cell-based. The following applies: PC-3, 72 h.
In another data set the test system is Jurkat. The experiment in a line: Cytotoxicity against human Jurkat cells after 72 hrs by MTT assay. Type of data set: functional, cell-based.
The test system of a further data set is K562. In words: Cytotoxicity against human K562 cells after 72 hrs by MTT assay. Type of data set: functional, cell-based. The following applies: K562, 72 h.
A further data set has as its system MCF7. In words: Cytotoxicity against human MCF7 cells after 72 hrs by MTT assay. It is filed as functional, cell-based. The following applies: MCF7, 72 h.
For data set [3], the system named is NCI-H929. In words: Cytotoxicity against human NCI-H929 cells after 72 hrs by MTT assay. Type of data set: functional, cell-based. To be noted: NCI-H929, 72 h.
The subject of data set [4] is HCT-116. The experiment in a line: Cytotoxicity against human HCT116 cells after 72 hrs by MTT assay. Type of data set: functional, cell-based. The following applies: HCT-116, 72 h.
For the next data set, the system named is THP-1. In words: Cytotoxicity against human THP1 cells after 72 hrs by MTT assay. Type of data set: functional, cell-based. To be noted: THP-1, 72 h.
The test system of a further data set is RPMI-8226. The experiment in a line: Cytotoxicity against human RPMI8226 cells after 72 hrs by MTT assay. Type of data set: functional, cell-based. To be noted: RPMI-8226, 72 h.
For another data set, the system named is HEF. The experiment in a line: Cytotoxicity against HEF after 72 hrs by MTT assay. Type of data set: cell-based. To be noted: Homo sapiens.
Data set [5] can be described thus: Therapeutic index, ratio of IC50 for HEF to IC50 for human HCT116 cells. Type of data set: toxicity. To be noted: HEF cells versus HCT116 cells, read-out: Ratio IC50.
Data set [6] deals with HCT-116. In words: Potency index, ratio of PPA IC50 to test compound IC50 for human HCT116 cells. Type of data set: functional.
The subject of data set [7] is PC-3. In words: Potency index, ratio of PPA IC50 to test compound IC50 for human PC3 cells. It is filed as functional.
The test system of data set [8] is NCI-H929. The experiment in a line: Potency index, ratio of PPA IC50 to test compound IC50 for human NCI-H929 cells. Type of data set: functional.
For data set [9], the system named is A549. In words: Potency index, ratio of etoposide IC50 to test compound IC50 for human A549 cells. It is filed as functional.
For data set [10], the system named is A549. The experiment in a line: Potency index, ratio of PPA IC50 to test compound IC50 for human A549 cells. It is filed as functional.
A short description of data set [11]: Therapeutic index, ratio of IC50 for HEF to IC50 for human NCI-H929 cells. Type of data set: toxicity. To be noted: HEF cells versus NCI-H929 cells, read-out: Ratio IC50.
Data set [12] deals with NCI-H929. In words: Potency index, ratio of etoposide IC50 to test compound IC50 for human NCI-H929 cells. It is filed as functional.

Each structure is given as a SMILES string. Where only a bound is given, the exact number is not on record here.

Turning to `C=C1C2=C(C(=O)N1OC)[C@H](O)[C@@](C)(O)[C@H](CCCCC)O2`, the half-inhibitory concentration (IC50) is 41 µM in the data set on A549 [1]; 32 µM with PC-3 [2]; 10 µM in the data set with Jurkat; 20 µM in the data set with K562; 20 µM in the data set on MCF7; 6.5 µM in the data set on NCI-H929 [3]. Besides, the half-inhibitory concentration (IC50) in the data set with HCT-116 [4] was 44 µM; with THP-1, 19 µM; in the data set with RPMI-8226 it was 9.3 µM; in the data set with HEF, 19 µM.
`C=C1C2=C(C(=O)N1OC)[C@H](OC(=O)CCl)[C@@](C)(O)[C@H](CCCCC)O2`: the 50% inhibitory concentration (IC50) in the data set on A549 [1] was 20 µM; with PC-3 [2] it was 2.4 µM; in the data set with Jurkat, 9.6 µM; with K562, 7 µM; in the data set with MCF7, 17 µM; with NCI-H929 [3], 3.3 µM. Also, the IC50 in the data set with HCT-116 [4] is 2.4 µM; in the data set on THP-1 it was 11 µM; in the data set on RPMI-8226 it was 9.7 µM; with HEF, 9.1 µM. Also, the selectivity ratio in [5] amounted to 3.8. Also, the “Ratio IC50” value in the data set with HCT-116 [6] is 20.
Take `C=C1C2=C(C(=O)N1OC)[C@@H](F)[C@@](C)(O)[C@H](CCCCC)O2`: the IC50 in the data set on A549 [1] was 42 µM; in the data set on PC-3 [2] it was 12 µM; in the data set on Jurkat, 15 µM; with K562 it was 18 µM; in the data set on MCF7, 37 µM; in the data set with NCI-H929 [3], 3.9 µM. Also, the IC50 stood at 31 µM with HCT-116 [4], 19 µM with THP-1, 16 µM in the data set with RPMI-8226 and 37 µM in the data set on HEF. Also, in the data set on PC-3 [7], the “Ratio IC50” value is recorded as 3.
`C=C1C2=C(C(=O)N1OC)[C@H](OC(=O)CSc1nc3ccccc3o1)[C@@](C)(O)[C@H](CCCCC)O2`: the half-maximal inhibitory concentration (IC50) amounted to 20 µM with A549 [1]; 5.8 µM with PC-3 [2]; 2.6 µM in the data set with Jurkat; 4.5 µM in the data set with K562; 3.9 µM in the data set on MCF7; 3 µM in the data set on NCI-H929 [3]. The IC50 in the data set with HCT-116 [4] is 4.9 µM; with THP-1 it was 2.3 µM; in the data set on RPMI-8226 it was 5.1 µM; with HEF it was 9.3 µM.
For the compound `C=C1C2=C(C(=O)N1OC)[C@H](OC(=O)CSc1nc3ccccc3[nH]1)[C@@](C)(O)[C@H](CCCCC)O2`, the IC50 worked out at 19 µM in the data set with A549 [1]; 6.4 µM in the data set with PC-3 [2]; 8.9 µM in the data set with Jurkat; 9.3 µM in the data set with K562; 16 µM in the data set on MCF7; 2 µM in the data set on NCI-H929 [3]. In addition, the IC50 in the data set with HCT-116 [4] was found to be 8.2 µM; in the data set with THP-1, 5.3 µM; in the data set on RPMI-8226 it was 4.3 µM; in the data set on HEF, 11 µM.
In the case of `C=C1C2=C(C(=O)N1OC)[C@H](OC(=O)CCCCCl)[C@@](C)(O)[C@H](CCCCC)O2`, the IC50 is 12 µM with A549 [1]; 9.2 µM with PC-3 [2]; 4.2 µM with Jurkat; 8.5 µM in the data set with K562; 5.4 µM in the data set with MCF7; 2.5 µM in the data set on NCI-H929 [3]. The half-maximal inhibitory concentration (IC50) was determined as 11 µM in the data set on HCT-116 [4], 4.6 µM with THP-1, 4.3 µM in the data set with RPMI-8226 and 11 µM in the data set on HEF.
`C=C1C2=C(C(=O)N1OC)[C@H](OC(=O)CSc1nc3ccccc3s1)[C@@](C)(O)[C@H](CCCCC)O2`: the IC50 in the data set with A549 [1] was 5.9 µM; in the data set on PC-3 [2], 5 µM; in the data set with Jurkat, 2.3 µM; in the data set on K562, 4.3 µM; in the data set with MCF7, 6.3 µM; in the data set on NCI-H929 [3] it was 0.59 µM. For the same compound, the half-maximal inhibitory concentration (IC50) was 4.7 µM in the data set with HCT-116 [4], 1.6 µM with THP-1, 2 µM in the data set on RPMI-8226 and 11 µM with HEF. In addition, the “Ratio IC50” value came out at 11 in the data set with NCI-H929 [8], 16 in the data set with A549 [9], 7 with A549 [10] and 1.5 with NCI-H929 [12]. In addition, the selectivity ratio in data set [11] is 18.6.
For the compound `COc1cc([C@@H]2c3cc4c(cc3[C@@H](O[C@@H]3O[C@@H]5CO[C@@H](C)O[C@H]5[C@H](O)[C@H]3O)[C@H]3COC(=O)[C@H]23)OCO4)cc(OC)c1O` [ETOPOSIDE], the IC50 with A549 [1] was determined as 100 µM; with PC-3 [2], 2.7 µM; in the data set on Jurkat it was 1.4 µM; with K562 it was 9.4 µM; with MCF7, 9.6 µM; in the data set on NCI-H929 [3] it was 0.9 µM. Also, the IC50 in the data set on HCT-116 [4] was 22 µM; with THP-1 it was 1 µM; in the data set with RPMI-8226 it was 4.8 µM; in the data set with HEF, above 100 µM.

The term IC50 denotes the concentration at which inhibition is half-maximal. A high value points to weaker potency in that assay.

The values above are taken from ChEMBL document CHEMBL4308869, “Towards lead compounds as anti-cancer agents via new phaeosphaeride A derivatives” (Bioorg Med Chem Lett, 2019).
